Results as given in US6001812A, “Modulating body/cranial hair growth with derivatives of the α-type melanocyte-stimulating hormone” (Societe L'Oreal S.A., priority 1995, dated 1999).
Where a SMILES comes first, the peptide text is derived from it.

Tested on: hair follicles
Experiment: Lengthening and survival of hair follicles maintained in vitro
Type: cell-based
Set-up: Mean lengthening: unit not given here
Method: Viable in vitro hair follicles were prepared according to the technique described in French Patent Application No. 95-08465, filed Jul. 12, 1995 and assigned to the assignee hereof.
From a scalp biopsy, a rather fine strip of scalp was isolated using a scalpel. The adipose tissue surrounding the follicles was removed with microforceps while avoiding damage to the hair bulb. The follicles were cut out with a scalpel under a microscope in order to separate them from their epidermal and dermal surroundings.
The follicles were then cultured in the wells of Costar-type 24-well plates, at the rate of one follicle per well. Each well contained 0.5 ml of Williams' medium E, to which had been added penicillin and streptomycin to a final concentration of 50 IU/ml, glutamine to 2 mM, bovine insulin to 0.01 mg/ml and hydrocortisone to 0.04 mg/ml.
The follicles were then measured using a microscope equipped with a micrometric eyepiece.
After 24 hours, the follicles were again measured and those which had lengthened by less than 0.3 divisions of the micrometer, corresponding to 0.16 mm, were discarded.
The five (5) following culturing conditions were tested:
Condition A: Complete Williams' medium E, without peptide.
Condition B: Complete Williams' medium E+10 mM Ac-LPV-NH2.
Condition C: Complete Williams' medium E+1 mM Ac-LPV-NH2.
Condition D: Complete Williams' medium E+0.1 mM Ac-LPV-NH2.

[1] = 0.1 mM peptide in complete Williams' medium E, day 0
[2] = 0.1 mM peptide in complete Williams' medium E, day 1
[3] = 0.1 mM peptide in complete Williams' medium E, day 4
[4] = 1 mM peptide in complete Williams' medium E, day 0
[5] = 1 mM peptide in complete Williams' medium E, day 1
[6] = 1 mM peptide in complete Williams' medium E, day 11
[7] = 10 mM peptide in complete Williams' medium E, day 0
[8] = 10 mM peptide in complete Williams' medium E, day 1
[9] = 10 mM peptide in complete Williams' medium E, day 12
[10] = summary of Example 1, versus medium without peptide

`CC(=O)N[C@@H](CCCCN)C(=O)N1CCC[C@H]1C(=O)N[C@H](C(N)=O)C(C)C` [Acetyl-Lys-Pro-Val-NH2] (Ac-Lys-Pro-Val-NH2) was tested, and the “% Survival” value [1] was 100%, the Mean lengthening [1] was 0.00 and the “% Survival” value [2] was 100%. The Mean lengthening [2] was 0.37, the “% Survival” value [3] was 100% and the Mean lengthening [3] was 1.10. The “% Survival” value (0.1 mM peptide in complete Williams' medium E, day 5) was 100%, the “% Survival” value (0.1 mM peptide in complete Williams' medium E, day 6) was 100% and the “% Survival” value (0.1 mM peptide in complete Williams' medium E, day 7) was 83%. For the same compound, the “% Survival” value (0.1 mM peptide in complete Williams' medium E, day 8) was 50%, the “% Survival” value (0.1 mM peptide in complete Williams' medium E, day 11) was 42% and the “% Survival” value (0.1 mM peptide in complete Williams' medium E, day 12) was 17%. The “% Survival” value [4] was 100%, the Mean lengthening [4] was 0.00 and the “% Survival” value [5] was 100%. For the same compound, the Mean lengthening [5] was 0.38, the “% Survival” value (1 mM peptide in complete Williams' medium E, day 4) was 100% and the “% Survival” value (1 mM peptide in complete Williams' medium E, day 5) was 100%. For the same compound, the “% Survival” value (1 mM peptide in complete Williams' medium E, day 6) was 100%, the “% Survival” value (1 mM peptide in complete Williams' medium E, day 7) was 91% and the “% Survival” value (1 mM peptide in complete Williams' medium E, day 8) was 55%. The “% Survival” value [6] was 36%, the Mean lengthening [6] was 1.70 and the “% Survival” value [7] was 100%. For the same compound, the Mean lengthening [7] was 0.00, the “% Survival” value [8] was 100% and the Mean lengthening [8] was 0.38. For the same compound, the “% Survival” value (10 mM peptide in complete Williams' medium E, day 4) was 100%, the “% Survival” value (10 mM peptide in complete Williams' medium E, day 5) was 100% and the “% Survival” value (10 mM peptide in complete Williams' medium E, day 6) was 100%. For the same compound, the “% Survival” value (10 mM peptide in complete Williams' medium E, day 7) was 100%, the “% Survival” value (10 mM peptide in complete Williams' medium E, day 8) was 92% and the “% Survival” value (10 mM peptide in complete Williams' medium E, day 11) was 83%. For the same compound, the “% Survival” value [9] was 42%, the Mean lengthening [9] was 2.40 and the “Effect on lengthening of the cultured hair follicles (in words)” value [10] was “promoted the lengthening”. The “Effect on survival time of the cultured hair follicles (in words)” value [10] was “increased their survival time”.
